Assay results: PMC2248166, “Quantitative peptide binding motifs for 19 human and mouse MHC class I molecules derived using positional scanning combinatorial peptide libraries” (Immunome Research, 2008)
Where a SMILES comes first, the peptide text is derived from it.

Each compound was assayed against HLA B*1503 (Homo sapiens, UniProt P01889, A329T/A93T/A95T/C349S/D201E/D98Y/E187L/E204Q/K202T/N87E/Q94N/R155S/R180L/S121R/S35A/V306I/V36M/Y140S/Y91S) (assay: biochemical).
Type: binding
In the case of `CC(C)C[C@H](NC(=O)[C@@H](N)Cc1ccccc1)C(=O)N[C@@H](CO)C(=O)N[C@@H](CCC(=O)O)C(=O)N1CCC[C@H]1C(=O)N[C@@H](Cc1ccc(O)cc1)C(=O)N[C@@H](CO)C(=O)N[C@@H](Cc1ccc(O)cc1)C(=O)N[C@@H](Cc1ccccc1)C(=O)O` [3102.1270] (H-FLSEPYSYF-OH), the IC50 is reported as 29 nM.
`CC(C)[C@H](NC(=O)[C@H](Cc1ccccc1)NC(=O)[C@H](Cc1c[nH]cn1)NC(=O)[C@H](CCC(N)=O)NC(=O)[C@@H](N)Cc1ccc(O)cc1)C(=O)N[C@@H](C)C(=O)N[C@@H](CCCNC(=N)N)C(=O)N[C@H](C(=O)N[C@@H](Cc1ccccc1)C(=O)O)C(C)C` [3102.1278] (H-YQHFVARVF-OH) gave an IC50 of 0.4 nM.
`CC(C)C[C@H](N)C(=O)N[C@@H](CCCCN)C(=O)N[C@@H](CO)C(=O)N1CCC[C@H]1C(=O)N[C@@H](CCCCN)C(=O)N[C@@H](CCCNC(=N)N)C(=O)N[C@@H](CS)C(=O)N[C@@H](CO)C(=O)N[C@@H](Cc1ccccc1)C(=O)O` [3102.1282] (H-LKSPKRCSF-OH) gave an IC50 of 2.7 nM.
With `CSCC[C@H](NC(=O)[C@H](Cc1ccc(O)cc1)NC(=O)[C@H](CC(N)=O)NC(=O)[C@H](Cc1ccc(O)cc1)NC(=O)[C@H](CO)NC(=O)[C@H](CCCCN)NC(=O)[C@@H](NC(=O)[C@H](CCCCN)NC(=O)[C@@H](N)CCCNC(=N)N)C(C)C)C(=O)O` [3102.1285] (H-RKVKSYNYM-OH) the IC50 was 2.6 nM.
`CSCC[C@H](N)C(=O)N[C@@H](CCCCN)C(=O)N[C@@H](Cc1ccc(O)cc1)C(=O)N[C@@H](CS)C(=O)N[C@@H](CO)C(=O)N[C@@H](Cc1ccc(O)cc1)C(=O)N[C@@H](CCC(N)=O)C(=O)N[C@@H](CO)C(=O)N[C@@H](Cc1ccccc1)C(=O)O` [3102.1287] (H-MKYCSYQSF-OH) gave an IC50 of 1.6 nM.
With `CC(C)C[C@H](N)C(=O)N[C@@H](CCCCN)C(=O)N[C@H](C(=O)N[C@H](C(=O)N[C@@H](Cc1ccccc1)C(=O)N[C@H](C(=O)N[C@@H](Cc1c[nH]cn1)C(=O)N1CCC[C@H]1C(=O)N[C@@H](Cc1ccccc1)C(=O)O)C(C)C)[C@@H](C)O)[C@@H](C)O` [3102.1294] (H-LKTTFVHPF-OH) the IC50 was 1.3 nM.
In the case of `CC[C@H](C)[C@H](NC(=O)[C@H](CO)NC(=O)[C@H](CCCNC(=N)N)NC(=O)[C@H](CCCNC(=N)N)NC(=O)[C@@H](NC(=O)[C@@H](NC(=O)[C@@H](NC(=O)[C@H](CCCCN)NC(=O)[C@@H](N)Cc1ccccc1)C(C)C)[C@@H](C)O)[C@@H](C)O)C(=O)O` [3102.1295] (H-FKVTTRRSI-OH), the IC50 is reported as 4.6 nM.
With `CC[C@H](C)[C@H](NC(=O)[C@H](CO)NC(=O)[C@@H](NC(=O)[C@H](C)NC(=O)[C@H](CC(C)C)NC(=O)[C@H](CC(N)=O)NC(=O)[C@H](CCCCN)NC(=O)[C@@H](N)Cc1ccccc1)[C@@H](C)O)C(=O)N[C@@H](Cc1ccc(O)cc1)C(=O)O` [3102.1297] (H-FKNLATSIY-OH) the IC50 was 1.6 nM.
Work on `CC[C@H](C)[C@H](NC(=O)[C@H](CC(=O)O)NC(=O)[C@@H](NC(=O)[C@H](Cc1ccccc1)NC(=O)[C@@H](NC(=O)[C@H](CCCCN)NC(=O)[C@@H](N)Cc1ccc(O)cc1)C(C)C)[C@@H](C)O)C(=O)N[C@@H](CO)C(=O)N[C@@H](CCSC)C(=O)O` [3102.1298] (H-YKVFTDISM-OH) yielded an IC50 of 2.2 nM.
For `CSCC[C@H](NC(=O)[C@H](CCCCN)NC(=O)[C@H](CS)NC(=O)[C@H](CO)NC(=O)[C@H](CO)NC(=O)[C@H](CCC(N)=O)NC(=O)[C@@H](N)CCCNC(=N)N)C(=O)N[C@@H](C)C(=O)N[C@@H](CC(C)C)C(=O)O` [3102.1299] (H-RQSSCKMAL-OH), the IC50 was 19 nM.
For `CC[C@H](C)[C@H](NC(=O)[C@H](CO)NC(=O)[C@H](CC(C)C)NC(=O)[C@@H](NC(=O)[C@H](CCCCN)NC(=O)[C@@H](N)Cc1c[nH]c2ccccc12)C(C)C)C(=O)N[C@@H](CCSC)C(=O)N[C@@H](C)C(=O)N[C@@H](Cc1ccccc1)C(=O)O` [3102.1300] (H-WKVLSIMAF-OH), the IC50 was 9.3 nM.
For `CC(C)C[C@H](N)C(=O)N[C@@H](CCCCN)C(=O)N[C@@H](CO)C(=O)N[C@@H](CC(N)=O)C(=O)N[C@@H](C)C(=O)N[C@@H](CC(=O)O)C(=O)N[C@@H](Cc1c[nH]c2ccccc12)C(=O)N[C@@H](Cc1ccccc1)C(=O)N[C@@H](Cc1ccccc1)C(=O)O` [3102.1304] (H-LKSNADWFF-OH), the IC50 was 10 nM.
`CC[C@H](C)[C@H](N)C(=O)N[C@@H](CCSC)C(=O)N[C@H](C(=O)N[C@@H](CO)C(=O)NCC(=O)N[C@H](C(=O)N[C@H](C(=O)N1CCC[C@H]1C(=O)N[C@@H](Cc1ccccc1)C(=O)O)[C@@H](C)CC)C(C)C)[C@@H](C)O` [3102.1305] (H-IMTSGVIPF-OH) was tested, and the IC50 was 0.22 nM.
In the case of `CC(C)[C@H](NC(=O)[C@@H](NC(=O)[C@H](C)NC(=O)[C@H](Cc1ccc(O)cc1)NC(=O)[C@@H](NC(=O)[C@H](C)NC(=O)[C@@H](N)CO)[C@@H](C)O)[C@@H](C)O)C(=O)N1CCC[C@H]1C(=O)N[C@@H](Cc1ccccc1)C(=O)O` [3102.1306] (H-SATYATVPF-OH), the IC50 is reported as 12 nM.
`CC(C)[C@H](NC(=O)[C@H](CCC(N)=O)NC(=O)[C@H](CO)NC(=O)[C@@H](NC(=O)[C@H](CO)NC(=O)[C@@H](NC(=O)[C@H](CCC(N)=O)NC(=O)[C@@H](N)Cc1ccc(O)cc1)[C@@H](C)O)C(C)C)C(=O)N[C@@H](C)C(=O)O` [3102.1307] (H-YQTSVSQVA-OH) showed an IC50 of 1.5 nM.
`CSCC[C@H](NC(=O)[C@H](CC(N)=O)NC(=O)CNC(=O)[C@H](CS)NC(=O)CNC(=O)[C@H](Cc1ccc(O)cc1)NC(=O)[C@H](CCCCN)NC(=O)[C@@H](N)CCCNC(=N)N)C(=O)N[C@@H](Cc1ccccc1)C(=O)O` [3102.1308] (H-RKYGCGNMF-OH) was tested, and the IC50 was 1.3 nM.
Compound `CC[C@H](C)[C@H](NC(=O)[C@H](CC(N)=O)NC(=O)[C@H](CC(C)C)NC(=O)[C@H](Cc1ccccc1)NC(=O)[C@H](CC(C)C)NC(=O)[C@@H](N)Cc1ccccc1)C(=O)N[C@@H](CC(N)=O)C(=O)N[C@@H](Cc1c[nH]cn1)C(=O)N[C@@H](Cc1ccc(O)cc1)C(=O)O` [3102.1309] (H-FLFLNINHY-OH) has an IC50 of 6.5 nM.
For `CC(C)C[C@H](NC(=O)[C@@H](NC(=O)[C@H](CO)NC(=O)[C@H](C)NC(=O)[C@H](Cc1ccc(O)cc1)NC(=O)[C@H](CCC(N)=O)NC(=O)[C@H](C)N)[C@@H](C)O)C(=O)N[C@@H](CO)C(=O)N[C@H](C(=O)O)C(C)C` [3102.1314] (H-AQYASTLSV-OH), the IC50 was 0.16 nM.
`CC[C@H](C)[C@H](NC(=O)[C@H](CO)NC(=O)[C@@H]1CCCN1C(=O)[C@H](CC(C)C)NC(=O)[C@@H](NC(=O)[C@H](CCSC)NC(=O)[C@H](CCSC)NC(=O)[C@@H](N)CC(C)C)[C@@H](C)O)C(=O)N[C@@H](Cc1ccccc1)C(=O)O` [3102.1317] (H-LMMTLPSIF-OH) was tested, and the IC50 was 0.15 nM.
In the case of `CC[C@H](C)[C@H](N)C(=O)N[C@@H](CCSC)C(=O)N[C@H](C(=O)N[C@@H](CO)C(=O)N[C@@H](CCC(=O)O)C(=O)N[C@@H](Cc1c[nH]cn1)C(=O)N[C@@H](Cc1ccccc1)C(=O)N[C@@H](CO)C(=O)N[C@@H](CC(C)C)C(=O)O)C(C)C` [3102.1318] (H-IMVSEHFSL-OH), the IC50 is reported as 5.5 nM.
Work on `CC(C)[C@H](NC(=O)[C@H](CC(N)=O)NC(=O)[C@@H](N)CO)C(=O)N[C@H](C(=O)N[C@@H](CS)C(=O)NCC(=O)N[C@H](C(=O)N[C@H](C(=O)N[C@@H](Cc1ccccc1)C(=O)O)[C@@H](C)O)[C@@H](C)O)C(C)C` [3102.1319] (H-SNVVCGTTF-OH) yielded an IC50 of 25 nM.
In the case of `CC[C@H](C)[C@H](NC(=O)[C@H](CC(N)=O)NC(=O)[C@@H](NC(=O)[C@H](C)NC(=O)[C@H](CS)NC(=O)[C@H](CCCNC(=N)N)NC(=O)[C@@H](NC(=O)[C@@H](N)CO)[C@@H](C)CC)[C@@H](C)O)C(=O)N[C@@H](Cc1ccccc1)C(=O)O` [3102.1321] (H-SIRCATNIF-OH), the IC50 is reported as 20 nM.
Compound `C[C@H](NC(=O)[C@H](Cc1c[nH]c2ccccc12)NC(=O)[C@H](CO)NC(=O)CNC(=O)[C@@H](N)CCCNC(=N)N)C(=O)N[C@H](C(=O)N[C@@H](CO)C(=O)N[C@@H](CO)C(=O)N[C@@H](Cc1ccccc1)C(=O)O)[C@@H](C)O` [3102.1323] (H-RGSWATSSF-OH) has an IC50 of 11 nM.
`CC[C@H](C)[C@H](NC(=O)[C@H](Cc1ccccc1)NC(=O)[C@H](CCC(=O)O)NC(=O)[C@H](Cc1ccccc1)NC(=O)[C@H](C)NC(=O)[C@H](C)N)C(=O)N[C@@H](CC(N)=O)C(=O)N[C@@H](CO)C(=O)N[C@@H](CC(C)C)C(=O)O` [3102.1324] (H-AAFEFINSL-OH) gave an IC50 of 4.6 nM.
Work on `CC[C@H](C)[C@H](N)C(=O)N[C@@H](CCCCN)C(=O)N[C@H](C(=O)N[C@@H](CCSC)C(=O)N[C@@H](CCSC)C(=O)N[C@H](C(=O)N[C@@H](CC(N)=O)C(=O)N1CCC[C@H]1C(=O)N[C@@H](Cc1ccccc1)C(=O)O)[C@@H](C)CC)[C@@H](C)O` [3102.1325] (H-IKTMMINPF-OH) yielded an IC50 of 0.19 nM.
`CC[C@H](C)[C@H](N)C(=O)N[C@@H](CCC(N)=O)C(=O)N[C@@H](Cc1ccc(O)cc1)C(=O)N[C@@H](CC(=O)O)C(=O)N[C@@H](CCCNC(=N)N)C(=O)N[C@@H](CCCNC(=N)N)C(=O)N[C@@H](CO)C(=O)N[C@@H](Cc1ccccc1)C(=O)N[C@@H](Cc1ccccc1)C(=O)O` [3102.1327] (H-IQYDRRSFF-OH) showed an IC50 of 0.15 nM.
Compound `CC(C)C[C@H](NC(=O)[C@H](CO)NC(=O)[C@@H]1CCCN1C(=O)[C@H](CO)NC(=O)[C@H](Cc1ccccc1)NC(=O)[C@H](CO)NC(=O)[C@@H](NC(=O)[C@H](CO)NC(=O)[C@@H](N)Cc1ccccc1)C(C)C)C(=O)O` [3102.1332] (H-FSVSFSPSL-OH) has an IC50 of 22 nM.
`CSCC[C@H](NC(=O)[C@@H](N)CCCCN)C(=O)N[C@H](C(=O)N[C@@H](Cc1ccc(O)cc1)C(=O)N[C@@H](C)C(=O)N[C@@H](CC(C)C)C(=O)N[C@@H](CC(C)C)C(=O)N[C@@H](CC(C)C)C(=O)N[C@@H](Cc1ccc(O)cc1)C(=O)O)C(C)C` [3102.1336] (H-KMVYALLLY-OH) gave an IC50 of 2.7 nM.
For `CC(C)C[C@H](NC(=O)[C@H](C)NC(=O)[C@H](CO)NC(=O)[C@@H](N)Cc1ccccc1)C(=O)N1CCC[C@H]1C(=O)N[C@H](C(=O)N[C@@H](CC(N)=O)C(=O)N[C@@H](CCC(=O)O)C(=O)N[C@@H](Cc1ccccc1)C(=O)O)[C@@H](C)O` [3102.1337] (H-FSALPTNEF-OH), the IC50 was 0.13 nM.
In the case of `CC[C@H](C)[C@H](NC(=O)[C@H](CO)NC(=O)[C@H](CC(=O)O)NC(=O)[C@H](CO)NC(=O)[C@H](CC(N)=O)NC(=O)[C@H](CCC(N)=O)NC(=O)[C@H](CCC(N)=O)NC(=O)[C@@H](N)CO)C(=O)N[C@@H](Cc1ccccc1)C(=O)O` [3102.1340] (H-SQQNSDSIF-OH), the IC50 is reported as 1.9 nM.
